Test results as given in US10933141B2, “Formulations with reduced degradation of polysorbate” (Genentech, Inc., priority 2015, dated 2021).
Entries after “also recorded” stand apart in the source; their conditions may differ.

Legend:
[1] = molecular target: T1, Candida Antarctica Lipase B (CALB) (Moesziomyces antarcticus, UniProt P41365); test: Enzymatic degradation of PS20 by CALB, PS20 by RP-ELSD; assay type: biochemical; conditions: for PS20 degradation (in words): 15% (w/v) excipient
T1 construct: purchased Sigma Aldrich Inc. (St. Louis, Mo.)
T1 sequence (P41365 26-342): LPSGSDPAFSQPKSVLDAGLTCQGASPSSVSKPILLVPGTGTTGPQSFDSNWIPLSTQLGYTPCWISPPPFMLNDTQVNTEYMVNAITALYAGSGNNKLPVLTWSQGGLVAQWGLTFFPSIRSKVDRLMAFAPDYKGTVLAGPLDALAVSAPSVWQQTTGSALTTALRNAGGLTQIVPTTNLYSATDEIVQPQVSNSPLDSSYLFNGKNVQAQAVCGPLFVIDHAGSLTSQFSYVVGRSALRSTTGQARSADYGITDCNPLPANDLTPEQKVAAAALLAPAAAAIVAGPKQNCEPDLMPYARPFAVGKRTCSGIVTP
Description: Polysorbate concentration was determined using reverse phase ultra-performance liquid chromatography using evaporative light scattering detection (RP-ELSD). Samples were analyzed using an Agilent 1100 series high performance liquid chromatography system (HPLC) fitted with a Waters Oasis MAX cartridge column (20×2.1 mm, 30 μm particle size). The HPLC system was set up with a switching valve directing column flow-through to either waste or a Varian 380-LC evaporative light scattering detector set to 100° C. The mobile phases consisted of 2% formic acid in water (Pump A) and 2% formic acid in isopropanol (Pump B). The pump gradient was isocratic at 10% pump B during equilibration, linear to 20% pump B for 1 minute, isocratic at 20% pump B for 2.4 minutes, linear to 100% pump B for 0.1 minutes, isocratic at 100% pump B for 1.1 minutes, linear to 10% pump B for 0.1 minutes, and finally isocratic at 10% pump B for 1.9 minutes. The switching valve directed column flow-through to waste at the beginning of every injection, and then directed flow to the detector after 2.4 minutes until the end of the gradient. In order to quantitate the PS20 concentration, a standard curve was generated by injecting 20 μL of solutions containing between 0% w/v and 0.4% w/v PS20. For excipients which affected the migration time of PS20 through the column, PS20 standard curve solutions containing the relevant excipient were included in the analysis to facilitate accurate quantitation.
[…] Samples of 0.02% PS20 in pH 5.5 buffer containing either no additional excipient, 15% Sucrose, […] the enzymes porcine pancreatic lipase (PPL), lipoprotein lipase (LPL), Candida Antarctica lipase (CALB) and rabbit liver esterase (RLE) at room temperature. PPL samples were digested with 15 μg/mL enzyme for 4.5 hours. LPL samples were digested with 70 μg/mL enzyme for 5 hours. CALB samples were digested with 0.1 mg/mL immobilized enzyme for 1 hour. RLE samples were digested with 15 μg/mL enzyme for 5 hours. All digestions were conducted at room temperature.
PPL digestion was stopped by heat inactivation in an 85° C. water bath for 30 minutes. LPL and RLE digestion could not be stopped by heat inactivation, so the samples were analyzed immediately for PS20 content. CALB digestion was stopped by filtering out the immobilized enzyme beads. In order to permit particle formation, CALB samples were placed at 5° C. overnight. RLE and LPL samples were frozen at −20° C. overnight to impede enzymatic activity and were then thawed over ice immediately prior to particle analysis.
As described above, all samples were analyzed for PS20 content by high performance liquid chromatography (Agilent 1100 series) with an inline evaporative light scattering detector (Varian 380-LC series). Visible particle inspection was conducted on a Seidenader visual inspection instrument. Subvisible particle analysis was conducted on a HIAC 9703 particle counter.

[2] = Solubilization of existing visible and subvisible particles from enzymatic PS20 degradation (HIAC, Seidenader); assay type: physicochemical; conditions: for amount of SVP after excipient spiked into degraded PS20 solution: 0.05% PS20 degraded with 37.5 μg/mL PPL, 35.5 mM HP-α-CD or HP-γ-CD, 0.5-15% HP-β-CD, 5° C. overnight, HIAC
Description: Subvisible particles were measured using a HIAC 9703 particle counter equipped with an HRDL-150 detector and a 1 mL syringe. Performance of the instrument was verified with NIST-traceable 2 μm Polystyrene bead standards at 3000 counts/mL before each measurement session. The HIAC instrument was configured to a 10 mL/min flow rate, 0.1 mL tare volume, and 0.4 mL sample volume. The samples were analyzed using 4 runs of 0.4 mL sips, with the first run of each sample was discarded to prevent measurement error due to sample carryover. Results were reported as the average values for 1.4, 2, 5, 10, 15, and 25, 50 μm analysis filter sizes.
Vials were inspected for visible particulates using a Seidenader V90-T visual inspection unit (Markt Schwaben, Germany) with vial carriage tilted to 60 degrees. Visible particle inspection of samples was performed by placing the glass vials in the holder and rotating in the presence of a Tyndall light directed through the bottom of the vial. Pre-rotation (i.e., fast rotation) was first performed to agitate the liquids, suspend, and circulate particles. Following rotation and illumination, the particles are in motion and the light causes reflections of the particles that make them visible (i.e., Tyndall effect). Visible particles were then observed using a magnifying lens. Videos and photographs of visible particles were obtained using a Samsung (seoul, South Korea) Galaxy device.
Several excipients were tested for their ability to solubilize particles produced as a result of enzymatic PS20 degradation. Solutions of concentrated HP-α-CD, HP-β-CD, HP-γ-CD, SBE-β-CD, PVP, PEG 1500, sucrose, and methionine were prepared in triplicate in pH 5.5 buffer. Particles from enzymatic PS20 degradation were prepared. Three solutions of 0.05% PS20 in pH 5.5 buffer were enzymatically degraded with 37.5 μg/mL PPL for 4.5 hours at room temperature, followed by 30 minutes of heat inactivation at 85° C. The degraded PS20 solutions were placed at 5° C. to allow for crystallization of particles.
After particle formation in the degraded PS20 solutions, the remaining sample preparation was conducted in a 5° C. cold room to prevent the PS20 derived particles from dissolving. Each degraded PS20 solution was divided into 11 aliquots and concentrated excipient was spiked into each the aliquots. The final concentration of excipient in each sample was as follows: 5% sucrose, 10 mg/mL methionine, 5% PVP, 5% PEG 1500, 15% HP-β-CD, 5% HP-β-CD, 0.5% HP-β-CD, 35.5 mM HP-α-CD, 35.5 mM HP-γ-CD, and 35.5 mM SBE-β-CD. After the addition of each excipient, samples were left at 5° C. overnight. The following day, vials were inspected for visible particles under a Seidenader visual inspection instrument. Subvisible particle counts were measured using a HIAC 9703 particle counter.

[3] = 0.02 (w/v) PS20, CALB digestion (FIG. 9)

Row | Molecule | PS20 degradation (in words) [1, 3] | Polysorbate 20 (Relative %) ([1]; 15% w/v HP-β-CD, 0.02% PS20, pH 5.5, 0.1 mg/mL immobilized CALB, 1 hour, room temperature) [%] | amount of SVP after excipient spiked into degraded PS20 solution [2] | visible particles after spiking excipient ([2]; 15% (w/v) HP-β-CD, PS20 particles from PPL digestion) | PS20 degradation ([1]; 15% HP-γ-CD, 0.02 (w/v) PS20, CALB digestion (FIG. 9)) [%]
1 | 2-hydroxypropyl-β-cyclodextrin [HP-β-CD] | no significant PS20 degradation | 85.7 | significantly reduce the amount of SVP | immediate solubilization of visible particles; also recorded: no visible particles | 
2 | 2-hydroxypropyl-α-cyclodextrin [HP-α-CD] | no significant PS20 degradation |  | significantly reduce the amount of SVP |  | 
3 | 2-hydroxypropyl-γ-cyclodextrin [HP-γ-CD] |  |  | significantly reduce the amount of SVP |  | ~82
4 | OC[C@H]1O[C@@](CO)(O[C@H]2O[C@H](CO)[C@@H](O)[C@H](O)[C@H]2O)[C@@H](O)[C@@H]1O [sucrose, reference compound] | significant decreases in PS20 concentration |  |  |  | 
